Where two headings read alike, the source gives them in different places.
Biological target: USP7 (Homo sapiens (Human), UniProt Q93009)
Test: USP7 fluorescence polarisation (FP) assay with ubiquitin-Lys-TAMRA substrate
Format: biochemical
Details: biochemical inhibition
Method: USP7 activity was monitored in a fluorescence polarisation (FP) homogeneous assay using the isopeptide ubiquitin-Lys-TAMRA substrate (U-558, Boston Biochem). Full-length USP7 was purchased from Boston Biochem (His6-USP7FL, E-519). Unless otherwise stated, all other reagents were purchased from Sigma-Aldrich. Enzymatic reactions were conducted in black flat-bottom low volume polystyrene 384-well plates (Grenier) and 15 μL total volume. USP7 (2.5 nM, 5 μL) was incubated in assay buffer (50 mM HEPES (pH 7.2), 150 mM NaCl, 5 mM DTT, 0.05% BSA (w/v), 0.05% CHAPS) in the presence or absence of inhibitor (5 μL). Inhibitors were stored as 10 mM DMSO stocks in an inert environment (low humidity, dark, low oxygen, room temperature) using a Storage Pod System and serial dilutions were prepared in buffer just prior to the assay (from 200 to 0.003 μM, 11 dp curve). Following incubation at room temperature for 30 min, the enzymatic reactions were initiated by dispensing the Ub substrate (50 nM, 5 μL). FP was measured every 5 min over a period of 1.5 h (within the linear range of the assay) using a Pherastar FSX (BMG Labtech) exciting at 530 nm and measuring the amount of parallel and perpendicular light at 575 nm. The FP signal was subsequently normalised to the control without compound present. Data were plotted and fitted, and the concentrations resulting in 50% inhibition (IC50) were calculated using the non-linear regression curve fitting model using GraphPad Prism.

[1] = read-out: USP7 IC50 activity (Table 3a, classes)
[2] = unit not given in Table 3b (Table 1 and key of Table 3a use μM), read-out: USP7 IC50 activity (Table 3b)

USP7, sequence (Q93009 whole entry): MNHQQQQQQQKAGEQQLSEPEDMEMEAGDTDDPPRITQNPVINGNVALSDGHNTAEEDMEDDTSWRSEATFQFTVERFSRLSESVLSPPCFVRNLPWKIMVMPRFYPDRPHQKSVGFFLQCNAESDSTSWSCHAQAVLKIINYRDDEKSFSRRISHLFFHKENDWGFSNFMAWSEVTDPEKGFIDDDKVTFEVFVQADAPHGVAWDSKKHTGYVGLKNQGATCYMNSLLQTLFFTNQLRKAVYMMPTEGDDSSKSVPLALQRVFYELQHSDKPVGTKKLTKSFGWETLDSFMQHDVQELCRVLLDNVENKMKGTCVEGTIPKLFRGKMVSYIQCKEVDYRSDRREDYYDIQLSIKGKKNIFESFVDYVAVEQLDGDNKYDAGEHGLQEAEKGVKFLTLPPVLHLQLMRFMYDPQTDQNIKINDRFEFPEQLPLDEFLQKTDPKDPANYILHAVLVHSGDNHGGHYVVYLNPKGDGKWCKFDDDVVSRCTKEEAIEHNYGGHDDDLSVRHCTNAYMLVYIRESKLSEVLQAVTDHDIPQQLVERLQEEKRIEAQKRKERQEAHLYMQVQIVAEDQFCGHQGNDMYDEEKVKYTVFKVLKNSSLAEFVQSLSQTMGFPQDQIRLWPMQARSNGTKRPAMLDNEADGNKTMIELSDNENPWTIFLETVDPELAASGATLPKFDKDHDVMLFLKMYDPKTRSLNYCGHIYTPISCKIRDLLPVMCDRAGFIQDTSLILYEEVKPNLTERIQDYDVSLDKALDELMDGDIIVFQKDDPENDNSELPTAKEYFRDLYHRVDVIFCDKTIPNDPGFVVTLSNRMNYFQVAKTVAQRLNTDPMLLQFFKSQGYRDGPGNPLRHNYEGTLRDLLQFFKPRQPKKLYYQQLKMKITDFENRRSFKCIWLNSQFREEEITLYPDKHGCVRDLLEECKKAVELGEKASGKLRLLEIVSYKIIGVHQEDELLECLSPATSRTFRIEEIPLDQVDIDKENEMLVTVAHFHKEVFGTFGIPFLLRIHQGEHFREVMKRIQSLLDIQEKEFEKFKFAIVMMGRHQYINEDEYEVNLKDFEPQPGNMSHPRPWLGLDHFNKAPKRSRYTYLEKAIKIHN

CC1(C(=O)N2CCC(O)(Cn3cnc4c(cc(Cl)n4-c4ccc(C5(C)COCCN5)cc4)c3=O)CC2)CC1 (stereo not drawn) [Example 3, 6-Chloro-3-((4-hydroxy-1-(1-methylcyclopropane-1-carbonyl)piperidin-4-yl)methyl)-7-(4-(3-methylmorpholin-3-yl)phenyl)-3,7-dihydro-4H-pyrrolo[2,3-d]pyrimidin-4-one]
IC50 [1]: 0.1 to 0.25 µM
IC50 [2]: 0.132 µM

C[C@H]1CN[C@H](c2ccc(-n3c(Cl)cc4c(=O)n(CC5(O)CCN(C(=O)c6ccc(Cl)cc6)CC5)cnc43)cc2)CO1 [Example 4, 6-Chloro-3-((1-(4-chlorobenzoyl)-4-hydroxypiperidin-4-yl)methyl)-7-(4-((3R,6S)-6-methylmorpholin-3-yl)phenyl)-3,7-dihydro-4H-pyrrolo[2,3-d]pyrimidin-4-one]
IC50 [1]: 0.1 to 0.25 µM
IC50 [2]: 0.222 µM

Cc1cc(-n2c(Cl)cc3c(=O)n(CC4(O)CCN(C(=O)c5ccc(Cl)cc5)CC4)cnc32)ccc1[C@@H]1CO[C@@H](C)CN1 [Example 5, 6-Chloro-3-((1-(4-chlorobenzoyl)-4-hydroxypiperidin-4-yl)methyl)-7-(3-methyl-4-((3R,6S)-6-methylmorpholin-3-yl)phenyl)-3,7-dihydro-4H-pyrrolo[2,3-d]pyrimidin-4-one]
IC50 [1]: 0.1 to 0.25 µM
IC50 [2]: 0.225 µM

C[C@@H]1OCCN[C@H]1c1ccc(-n2c(Cl)cc3c(=O)n(CC4(O)CCN(C(=O)c5ccc(Cl)cc5)CC4)cnc32)cc1 [Example 6, 6-Chloro-3-((1-(4-chlorobenzoyl)-4-hydroxypiperidin-4-yl)methyl)-7-(4-((2S,3S)-2-methylmorpholin-3-yl)phenyl)-3,7-dihydro-4H-pyrrolo[2,3-d]pyrimidin-4-one]
IC50 [1]: < 0.1 µM
IC50 [2]: 0.05 µM

C[C@H]1CN[C@H](c2ccc(-n3c(Cl)cc4c(=O)n(CC5(O)CCN(C(=O)C[C@H](c6ccccc6)C(F)(F)F)CC5)cnc43)cc2)CO1 [Example 7, 6-Chloro-3-((4-hydroxy-1-((R)-4,4,4-trifluoro-3-phenylbutanoyl)piperidin-4-yl)methyl)-7-(4-((3R,6S)-6-methylmorpholin-3-yl)phenyl)-3,7-dihydro-4H-pyrrolo[2,3-d]pyrimidin-4-one]
IC50 [1]: < 0.1 µM
IC50 [2]: 0.016 µM

C[C@@H]1CN[C@@H](c2ccc(-n3c(Cl)cc4c(=O)n(CC5(O)CCN(C(=O)c6ccc(Cl)cc6)CC5)cnc43)cc2)CO1 [Example 11, 6-Chloro-3-((1-(4-chlorobenzoyl)-4-hydroxypiperidin-4-yl)methyl)-7-(4-((3S,6R)-6-methylmorpholin-3-yl)phenyl)-3,7-dihydro-4H-pyrrolo[2,3-d]pyrimidin-4-one]
IC50 [1]: < 0.1 µM
IC50 [2]: 0.08 µM

Cc1cc(-n2c(Cl)cc3c(=O)n(CC4(O)CCN(C(=O)c5ccc(Cl)cc5)CC4)cnc32)ccc1[C@H]1CO[C@H](C)CN1 [Example 12, 6-Chloro-3-((1-(4-chlorobenzoyl)-4-hydroxypiperidin-4-yl)methyl)-7-(3-methyl-4-((3S,6R)-6-methylmorpholin-3-yl)phenyl)-3,7-dihydro-4H-pyrrolo[2,3-d]pyrimidin-4-one]
IC50 [1]: 0.1 to 0.25 µM
IC50 [2]: 0.13 µM

C[C@@H]1CN[C@@H](c2ccc(-n3c(Cl)cc4c(=O)n(CC5(O)CCN(C(=O)C[C@H](c6ccccc6)C(F)(F)F)CC5)cnc43)cc2)CO1 [Example 13, 6-Chloro-3-((4-hydroxy-1-((R)-4,4,4-trifluoro-3-phenylbutanoyl)piperidin-4-yl)methyl)-7-(4-((3S,6R)-6-methylmorpholin-3-yl)phenyl)-3,7-dihydro-4H-pyrrolo[2,3-d]pyrimidin-4-one]
IC50 [1]: < 0.1 µM
IC50 [2]: 0.028 µM

CC1(C)COCC(c2ccc(-n3c(Cl)cc4c(=O)n(CC5(O)CCN(C(=O)C6(C)CC6)CC5)cnc43)cc2)N1 (stereo not drawn) [Example 15, 6-Chloro-7-(4-(5,5-dimethylmorpholin-3-yl)phenyl)-3-((4-hydroxy-1-(1-methylcyclopropane-1-carbonyl)piperidin-4-yl)methyl)-3,7-dihydro-4H-pyrrolo[2,3-d]pyrimidin-4-one]
IC50 [1]: 0.1 to 0.25 µM
IC50 [2]: 0.169 µM

CC1(C)COCC(c2ccc(-n3c(Cl)cc4c(=O)n(CC5(O)CCN(C(=O)c6ccc(Cl)cc6)CC5)cnc43)cc2)N1 (stereo not drawn) [Example 16, 6-Chloro-3-((1-(4-chlorobenzoyl)-4-hydroxypiperidin-4-yl)methyl)-7-(4-(5,5-dimethylmorpholin-3-yl)phenyl)-3,7-dihydro-4H-pyrrolo[2,3-d]pyrimidin-4-one]
IC50 [1]: 0.1 to 0.25 µM
IC50 [2]: 0.249 µM

O=C(c1ccc(Cl)cc1)N1CCC(O)(Cn2cnc3c(cc(Cl)n3-c3ccc(C4COCC5(CC5)N4)cc3)c2=O)CC1 (stereo not drawn) [Example 18, 7-(4-(7-Oxa-4-azaspiro[2.5]octan-5-yl)phenyl)-6-chloro-3-((1-(4-chlorobenzoyl)-4-hydroxypiperidin-4-yl)methyl)-3,7-dihydro-4H-pyrrolo[2,3-d]pyrimidin-4-one]
IC50 [1]: 0.25 to 2 µM
IC50 [2]: 0.378 µM

CC1(C(=O)N2CCC(O)(Cn3cnc4c(cc(Cl)n4-c4ccc(C5COCC6(CC6)N5)cc4)c3=O)CC2)CC1 (stereo not drawn) [Example 19, 7-(4-(7-Oxa-4-azaspiro[2.5]octan-5-yl)phenyl)-6-chloro-3-((4-hydroxy-1-(1-methylcyclopropane-1-carbonyl)piperidin-4-yl)methyl)-3,7-dihydro-4H-pyrrolo[2,3-d]pyrimidin-4-one]
IC50 [1]: 0.25 to 2 µM
IC50 [2]: 0.372 µM

C[C@H]1CN[C@H](c2ccc(-n3c(Cl)cc4c(=O)n(CC5(O)CCN(C(=O)c6ccccc6)CC5)cnc43)cc2)CO1 [Example 20, 3-((1-Benzoyl-4-hydroxypiperidin-4-yl)methyl)-6-chloro-7-(4-((3R,6S)-6-methylmorpholin-3-yl)phenyl)-3,7-dihydro-4H-pyrrolo[2,3-d]pyrimidin-4-one]
IC50 [1]: 0.25 to 2 µM
IC50 [2]: 0.379 µM

C[C@H]1CN[C@H](c2ccc(-n3c(Cl)cc4c(=O)n(CC5(O)CCN(C(=O)c6ccc(F)cc6F)CC5)cnc43)cc2)CO1 [Example 22, 6-Chloro-3-((1-(2,4-difluorobenzoyl)-4-hydroxypiperidin-4-yl)methyl)-7-(4-((3R,6S)-6-methylmorpholin-3-yl)phenyl)-3,7-dihydro-4H-pyrrolo[2,3-d]pyrimidin-4-one]
IC50 [1]: 0.1 to 0.25 µM
IC50 [2]: 0.222 µM

C[C@@H]1CN[C@@H](c2ccc(-n3c(Cl)cc4c(=O)n(CC5(O)CCN(C(=O)c6ccccc6)CC5)cnc43)cc2)CO1 [Example 24, 3-((1-Benzoyl-4-hydroxypiperidin-4-yl)methyl)-6-chloro-7-(4-((3S,6R)-6-methylmorpholin-3-yl)phenyl)-3,7-dihydro-4H-pyrrolo[2,3-d]pyrimidin-4-one]
IC50 [1]: 0.1 to 0.25 µM
IC50 [2]: 0.25 µM

C[C@@H]1CN[C@@H](c2ccc(-n3c(Cl)cc4c(=O)n(CC5(O)CCN(C(=O)c6ccc(F)cc6)CC5)cnc43)cc2)CO1 [Example 25, 6-Chloro-3-((1-(4-fluorobenzoyl)-4-hydroxypiperidin-4-yl)methyl)-7-(4-((3S,6R)-6-methylmorpholin-3-yl)phenyl)-3,7-dihydro-4H-pyrrolo[2,3-d]pyrimidin-4-one]
IC50 [1]: 0.1 to 0.25 µM
IC50 [2]: 0.147 µM

C[C@H]1CN[C@H](c2ccc(-n3c(Cl)cc4c(=O)n(CC5(O)CCN(C(=O)c6ccc(Cl)cc6F)CC5)cnc43)cc2)CO1 [Example 30, 6-Chloro-3-((1-(4-chloro-2-fluorobenzoyl)-4-hydroxypiperidin-4-yl)methyl)-7-(4-((3R,6S)-6-methylmorpholin-3-yl)phenyl)-3,7-dihydro-4H-pyrrolo[2,3-d]pyrimidin-4-one]
IC50 [1]: 0.1 to 0.25 µM
IC50 [2]: 0.164 µM

C[C@H]1CN[C@H](c2ccc(-n3c(Cl)cc4c(=O)n(CC5(O)CCN(C(=O)c6ccccc6Cl)CC5)cnc43)cc2)CO1 [Example 31, 6-Chloro-3-((1-(2-chlorobenzoyl)-4-hydroxypiperidin-4-yl)methyl)-7-(4-((3R,6S)-6-methylmorpholin-3-yl)phenyl)-3,7-dihydro-4H-pyrrolo[2,3-d]pyrimidin-4-one]
IC50 [1]: 0.1 to 0.25 µM
IC50 [2]: 0.144 µM

C[C@H]1CN[C@H](c2ccc(-n3c(Cl)cc4c(=O)n(CC5(O)CCN(C(=O)c6cccc(Cl)c6)CC5)cnc43)cc2)CO1 [Example 35, 6-Chloro-3-((1-(3-chlorobenzoyl)-4-hydroxypiperidin-4-yl)methyl)-7-(4-((3R,6S)-6-methylmorpholin-3-yl)phenyl)-3,7-dihydro-4H-pyrrolo[2,3-d]pyrimidin-4-one]
IC50 [1]: 0.1 to 0.25 µM
IC50 [2]: 0.224 µM

C[C@H]1CN[C@H](c2ccc(-n3c(Cl)cc4c(=O)n(CC5(O)CCN(C(=O)c6ccccc6F)CC5)cnc43)cc2)CO1 [Example 36, 6-Chloro-3-((1-(2-fluorobenzoyl)-4-hydroxypiperidin-4-yl)methyl)-7-(4-((3R,6S)-6-methylmorpholin-3-yl)phenyl)-3,7-dihydro-4H-pyrrolo[2,3-d]pyrimidin-4-one]
IC50 [1]: 0.25 to 2 µM
IC50 [2]: 0.511 µM

C[C@H]1CN[C@H](c2ccc(-n3c(Cl)cc4c(=O)n(CC5(O)CCN(C(=O)c6ccc(F)c(F)c6)CC5)cnc43)cc2)CO1 [Example 37, 6-Chloro-3-((1-(3,4-difluorobenzoyl)-4-hydroxypiperidin-4-yl)methyl)-7-(4-((3R,6S)-6-methylmorpholin-3-yl)phenyl)-3,7-dihydro-4H-pyrrolo[2,3-d]pyrimidin-4-one]
IC50 [1]: 0.25 to 2 µM
IC50 [2]: 0.254 µM

Reference: patent publication US20250122223A1, “HETEROCYCLIC COMPOUNDS AS UBIQUITIN SPECIFIC PROTEASE 7 INHIBITORS” (ALMAC DISCOVERY LIMITED, priority 2022, published 2025)
